{"source": "patent US5607937A", "about": "“Piperazides of substituted phenylalanine derivatives as thrombin inhibitors” (priority 1993, dated 1997)", "key": {"[1]": {"experiment": "plasma concentration in rats after intravenous administration", "format": "in vivo", "conditions": "rat"}, "[2]": {"experiment": "plasma concentration in rats after oral administration", "format": "in vivo", "conditions": "rat, oral", "procedure": "A physiological NaCl solution of the substance to be tested was submitted to high pressure liquid chromatography (HPLC) in order to determine its characteristic substance-specific retention time with the chosen test conditions.\nThe substance to be tested was diluted in vitro in rat plasma. This solution was also submitted to HPLC to see whether the characteristic peak of the substance once again appeared at the substance-specific retention time.\nBlood samples were taken at time intervals of 15 minutes, from which plasma samples were prepared by centrifugation; those samples were also submitted to HPLC to see whether the characteristic peak of the substance appeared again at the substance-specific retention time.\nAfter administration, blood samples were taken from the test animals at time intervals from 2 to maximally 360 minutes and the blood level of the compounds to be tested was determined by HPLC."}, "[3]": {"experiment": "plasma concentration in rats after rectal administration", "format": "in vivo", "conditions": "rat"}, "in vivo": {"experiment": "in vivo", "conditions": "rat"}, "[4]": {"tested_on": "coagulation in rat plasma", "experiment": "thrombin time in rat plasma after rectal application", "format": "in vivo", "conditions": "rectal 5 mg/kg", "description": "(§1) After rectal administration of the compounds to be tested, the anticoagulant effect was determined in the plasma of experimental animals."}, "[5]": {"tested_on": "coagulation in rat plasma", "experiment": "aPTT in rat plasma after rectal application", "format": "in vivo", "conditions": "rectal 5 mg/kg", "description": "as §1"}, "[6]": {"experiment": "concentration in rat plasma in the anticoagulant study after rectal application", "format": "in vivo", "conditions": "rectal 5 mg/kg"}, "thrombin": {"molecular_target": "thrombin (Bos taurus, UniProt P00735)", "experiment": "biochemical"}, "[7]": {"tested_on": "coagulation in human plasma", "experiment": "thrombin time (TT) in human plasma"}, "tPA": {"molecular_target": "tPA (Homo sapiens, UniProt P00750)", "sequence (P00750 36-562)": "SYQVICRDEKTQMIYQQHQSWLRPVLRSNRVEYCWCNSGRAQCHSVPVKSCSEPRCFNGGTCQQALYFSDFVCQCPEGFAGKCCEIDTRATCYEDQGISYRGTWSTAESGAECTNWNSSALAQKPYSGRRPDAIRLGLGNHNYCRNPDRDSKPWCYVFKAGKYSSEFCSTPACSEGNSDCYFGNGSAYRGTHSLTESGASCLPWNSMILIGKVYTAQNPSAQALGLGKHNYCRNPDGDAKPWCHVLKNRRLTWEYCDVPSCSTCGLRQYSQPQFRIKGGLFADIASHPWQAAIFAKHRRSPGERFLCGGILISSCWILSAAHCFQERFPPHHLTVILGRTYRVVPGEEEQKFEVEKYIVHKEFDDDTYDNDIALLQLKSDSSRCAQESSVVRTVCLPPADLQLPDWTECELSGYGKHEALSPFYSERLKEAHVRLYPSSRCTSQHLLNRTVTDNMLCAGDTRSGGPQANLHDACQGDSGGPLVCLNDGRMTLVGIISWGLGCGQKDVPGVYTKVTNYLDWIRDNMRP", "experiment": "inhibition of tPA, dissociation constant Ki"}, "[8]": {"tested_on": "coagulation in human plasma", "experiment": "prothrombin time (PT, Quick value) in human plasma"}, "factor XIIa": {"molecular_target": "T1, factor XIIa (Homo sapiens, UniProt P00748)", "T1 sequence (P00748 373-615 limits assumed)": "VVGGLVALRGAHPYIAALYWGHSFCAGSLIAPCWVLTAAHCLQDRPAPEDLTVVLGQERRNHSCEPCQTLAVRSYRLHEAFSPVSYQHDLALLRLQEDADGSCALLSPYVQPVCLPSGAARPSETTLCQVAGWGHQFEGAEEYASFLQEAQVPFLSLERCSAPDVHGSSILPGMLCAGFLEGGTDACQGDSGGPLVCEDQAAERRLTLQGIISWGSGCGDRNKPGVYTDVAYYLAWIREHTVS", "experiment": "inhibition of factor XIIa, dissociation constant Ki", "conditions": "Ki, Factor XIIa, Table 1"}, "plasma kallikrein": {"molecular_target": "plasma kallikrein (Homo sapiens, UniProt P03952)", "sequence (P03952 391-638 limits assumed, species assumed)": "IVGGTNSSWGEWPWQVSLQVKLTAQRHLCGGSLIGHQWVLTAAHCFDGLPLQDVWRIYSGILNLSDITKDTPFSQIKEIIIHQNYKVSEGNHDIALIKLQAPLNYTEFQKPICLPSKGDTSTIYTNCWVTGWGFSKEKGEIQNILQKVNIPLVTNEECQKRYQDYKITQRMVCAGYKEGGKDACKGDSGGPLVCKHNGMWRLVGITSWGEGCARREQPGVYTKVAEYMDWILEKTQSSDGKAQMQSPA", "sequence (P03952 20-390 partner limits assumed, species assumed)": "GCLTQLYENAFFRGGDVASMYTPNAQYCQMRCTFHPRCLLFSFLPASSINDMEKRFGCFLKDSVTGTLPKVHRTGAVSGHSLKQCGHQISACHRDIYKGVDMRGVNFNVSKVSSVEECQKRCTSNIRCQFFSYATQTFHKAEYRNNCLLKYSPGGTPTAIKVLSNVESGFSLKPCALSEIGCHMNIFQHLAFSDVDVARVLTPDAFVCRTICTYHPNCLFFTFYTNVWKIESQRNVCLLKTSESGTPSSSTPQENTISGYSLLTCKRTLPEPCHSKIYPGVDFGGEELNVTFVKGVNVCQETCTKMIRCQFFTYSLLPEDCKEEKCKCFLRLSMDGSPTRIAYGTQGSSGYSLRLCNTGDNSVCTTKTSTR", "experiment": "inhibition of plasma kallikrein, dissociation constant Ki"}, "glandular kallikrein": {"molecular_target": "glandular kallikrein (Sus scrofa, UniProt P00752)", "sequence (P00752 8-246)": "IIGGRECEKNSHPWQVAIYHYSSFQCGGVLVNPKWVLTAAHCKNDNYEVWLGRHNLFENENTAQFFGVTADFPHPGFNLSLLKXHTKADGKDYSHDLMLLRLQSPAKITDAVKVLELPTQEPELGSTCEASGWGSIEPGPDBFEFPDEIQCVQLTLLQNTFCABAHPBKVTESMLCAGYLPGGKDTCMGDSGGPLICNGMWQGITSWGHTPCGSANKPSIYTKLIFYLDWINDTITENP", "experiment": "inhibition of glandular kallikrein, dissociation constant Ki"}, "[9]": {"tested_on": "coagulation in human plasma", "experiment": "activated partial thromboplastin time (aPTT) in human plasma"}, "trypsin": {"molecular_target": "T2, trypsin (Bos taurus, UniProt P00760)", "T2 sequence (P00760 24-246)": "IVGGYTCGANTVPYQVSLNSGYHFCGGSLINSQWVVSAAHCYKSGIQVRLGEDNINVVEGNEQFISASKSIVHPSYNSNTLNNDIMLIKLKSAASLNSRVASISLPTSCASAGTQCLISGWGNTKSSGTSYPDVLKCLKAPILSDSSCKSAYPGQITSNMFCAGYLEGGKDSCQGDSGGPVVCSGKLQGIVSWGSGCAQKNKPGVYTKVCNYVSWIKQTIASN", "experiment": "inhibition of trypsin, dissociation constant Ki", "format": "biochemical", "design": "thrombin and the related enzymes trypsin, plasmin, factor Xa, factor XIIa", "conditions": "Table 1; read-out: Ki, Trypsin", "description": "The biological activity of the compounds of the present invention was determined in vitro as well as in vivo."}}}
{"compound": "Cl.Cl.N=C(N)c1cccc(C[C@H](NS(=O)(=O)c2ccc3ccccc3c2)C(=O)N2CCN(CCO)CC2)c1", "note": "[Compound 3, Nα-(2-naphthylsulfonyl)-3-amidino-(L)-phenylalanine-4-(2-hydroxyethyl) -piperazide dihydrochloride]", "values": [{"measurement": "concentration at 5 min", "setting": "[1]; plasma, iv, i.v. 1 mg/kg, 5 min", "result": 2210, "unit": "ng/mL"}, {"measurement": "concentration at 0.25 h", "setting": "[1]; plasma, iv, i.v. 1 mg/kg, 15 min", "result": 145, "unit": "ng/mL"}, {"measurement": "concentration at 0.5 h", "setting": "[1]; plasma, iv, i.v. 1 mg/kg, 30 min", "result": 313, "unit": "ng/mL"}, {"measurement": "concentration at 1 h", "setting": "[1]; plasma, iv, i.v. 1 mg/kg, 60 min", "result": 112, "unit": "ng/mL"}, {"measurement": "elimination in words", "setting": "[1]; i.v.", "result": "eliminated at comparable rate"}, {"measurement": "Concentration in plasma", "setting": "[1]; i.v. 1 mg/kg, 120 min", "result": 0, "unit": "ng/mL"}, {"measurement": "Concentration in plasma", "setting": "[1]; i.v. 1 mg/kg, 180 min", "result": 0, "unit": "ng/mL"}, {"measurement": "resorption in words", "setting": "[2]", "result": "only slightly resorbed"}, {"measurement": "concentration at 0.5 h", "setting": "[3]; plasma, rectal 20 mg/kg, 30 min", "result": 7260, "unit": "ng/mL"}, {"measurement": "concentration at 1 h", "setting": "[3]; plasma, rectal 20 mg/kg, 60 min", "result": 3800, "unit": "ng/mL"}, {"measurement": "concentration at 2 h", "setting": "[3]; plasma, rectal 20 mg/kg, 120 min", "result": 1740, "unit": "ng/mL"}, {"measurement": "concentration at 3 h", "setting": "[3]; plasma, rectal 20 mg/kg, 180 min", "result": 814, "unit": "ng/mL"}, {"measurement": "concentration at 4 h", "setting": "[3]; plasma, rectal 20 mg/kg, 240 min", "result": 215, "unit": "ng/mL"}, {"measurement": "concentration at 5 h", "setting": "[3]; plasma, rectal 20 mg/kg, 300 min", "result": 61, "unit": "ng/mL"}, {"measurement": "concentration at 6 h", "setting": "[3]; plasma, rectal 20 mg/kg, 360 min", "result": 34, "unit": "ng/mL"}, {"measurement": "detectable in plasma after rectal administration", "setting": "[3]; rectal", "result": "≥ 6", "unit": "h"}, {"measurement": "concentration at 0.5 h", "setting": "in vivo; plasma, intraduodenal 100 mg/kg, 30 min", "result": 3820, "unit": "ng/mL"}, {"measurement": "Concentration in plasma", "setting": "in vivo; in vivo, other, 100 mg/kg, 120 min", "result": 361, "unit": "ng/mL"}, {"measurement": "Concentration in plasma", "setting": "in vivo; intraduodenal 100 mg/kg, 30 min, dihydrochloride, 100 mg/kg", "result": 2262, "unit": "ng/mL"}, {"measurement": "Concentration in plasma", "setting": "in vivo; intraduodenal 100 mg/kg, 60 min, dihydrochloride, 100 mg/kg", "result": 2172, "unit": "ng/mL"}, {"measurement": "Concentration in plasma", "setting": "in vivo; intraduodenal 100 mg/kg, 60 min, listed as 3*, dihydrochloride, 100 mg/kg", "result": 795, "unit": "ng/mL"}, {"measurement": "Concentration in plasma", "setting": "in vivo; intraduodenal 100 mg/kg, 120 min", "result": 1457, "unit": "ng/mL"}, {"measurement": "Concentration in plasma", "setting": "in vivo; intraduodenal 100 mg/kg, 180 min, dihydrochloride, 100 mg/kg", "result": 945, "unit": "ng/mL"}, {"measurement": "Concentration in plasma", "setting": "in vivo; intraduodenal 100 mg/kg, 180 min, listed as 3*, dihydrochloride, 100 mg/kg", "result": 228, "unit": "ng/mL"}, {"measurement": "Concentration in plasma", "setting": "in vivo; intraduodenal 100 mg/kg, 240 min, dihydrochloride, 100 mg/kg", "result": 1277, "unit": "ng/mL"}, {"measurement": "Concentration in plasma", "setting": "in vivo; intraduodenal 100 mg/kg, 240 min, listed as 3*, dihydrochloride, 100 mg/kg", "result": 144, "unit": "ng/mL"}, {"measurement": "Concentration in plasma", "setting": "in vivo; intraduodenal 100 mg/kg, 300 min, dihydrochloride, 100 mg/kg", "result": 1400, "unit": "ng/mL"}, {"measurement": "Concentration in plasma", "setting": "in vivo; intraduodenal 100 mg/kg, 300 min, listed as 3*, dihydrochloride, 100 mg/kg", "result": 276, "unit": "ng/mL"}, {"measurement": "Clotting time, Thrombin time", "setting": "[4]; 0 min", "result": 45, "unit": "s"}, {"measurement": "Clotting time, Thrombin time", "setting": "[4]; 30 min", "result": 300, "unit": "s"}, {"measurement": "Clotting time, Thrombin time", "setting": "[4]; 60 min", "result": 298, "unit": "s"}, {"measurement": "Clotting time, Thrombin time", "setting": "[4]; 120 min", "result": 165, "unit": "s"}, {"measurement": "Clotting time, Thrombin time", "setting": "[4]; 180 min", "result": 114, "unit": "s"}, {"measurement": "Clotting time, aPTT", "setting": "[5]; 0 min", "result": 23.5, "unit": "s"}, {"measurement": "Clotting time, aPTT", "setting": "[5]; 30 min", "result": 39.8, "unit": "s"}, {"measurement": "Clotting time, aPTT", "setting": "[5]; 60 min", "result": 32.8, "unit": "s"}, {"measurement": "Clotting time, aPTT", "setting": "[5]; 120 min", "result": 27.4, "unit": "s"}, {"measurement": "Clotting time, aPTT", "setting": "[5]; 180 min", "result": 26.0, "unit": "s"}, {"measurement": "concentration at 0.5 h", "setting": "[6]; plasma, 30 min", "result": 897, "unit": "ng/mL"}, {"measurement": "concentration at 1 h", "setting": "[6]; plasma, 60 min", "result": 462, "unit": "ng/mL"}, {"measurement": "concentration at 2 h", "setting": "[6]; plasma, 120 min", "result": 355, "unit": "ng/mL"}, {"measurement": "concentration at 3 h", "setting": "[6]; plasma, 180 min", "result": 49, "unit": "ng/mL"}, {"measurement": "Concentration in plasma", "setting": "[6]; 0 min", "result": 0, "unit": "ng/mL"}, {"measurement": "Ki", "setting": "thrombin", "result": 0.036, "unit": "µM"}, {"measurement": "Concentr. to double the Thrombin time", "setting": "[7]", "result": 0.14, "unit": "µmol/L"}, {"measurement": "Ki", "setting": "tPA", "result": 190, "unit": "µM"}, {"measurement": "Concentr. to double the Prothrombin time", "setting": "[8]", "result": 1.3, "unit": "µmol/L"}, {"measurement": "Ki", "setting": "factor XIIa", "result": 320, "unit": "µM"}, {"measurement": "Ki", "setting": "plasma kallikrein", "result": 25, "unit": "µM"}, {"measurement": "Ki", "setting": "glandular kallikrein", "result": "> 1000", "unit": "µM"}, {"measurement": "Concentr. to double the aPTT", "setting": "[9]", "result": 0.65, "unit": "µmol/L"}, {"measurement": "Ki", "setting": "trypsin", "result": 0.6, "unit": "µM"}]}
